Measurements as given in the supplement of paper PMC11451515.

Test system: SEM cells
Experiment: cell viability relative to DMSO control; higher = less cytotoxic
Settings: 48 h
In short: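 In 1536-well plates, 5 μl of leukemia cells were seeded per well: 500 cells/well for NOMO1 or SEM and 1000 cells/well for P12-Ichikawa. Each line had first been adapted for at least four passages in each medium. Library compounds in DMSO were pin-dosed at 11 threefold concentrations between 47 μM and 0.79 nM, and CellTiter-Glo One luminescence was read after 48 h at 37°C. Viability is a per-plate percentage relative to DMSO wells, with cell-free wells as background.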

[1] = HPLM + 10% dialyzed FBS, 0.000781 µM
[2] = HPLM + 10% dialyzed FBS, 0.00234 µM
[3] = HPLM + 10% dialyzed FBS, 0.00702 µM
[4] = HPLM + 10% dialyzed FBS, 0.0211 µM
[5] = HPLM + 10% dialyzed FBS, 0.0632 µM
[6] = HPLM + 10% dialyzed FBS, 0.19 µM
[7] = HPLM + 10% dialyzed FBS, 0.569 µM
[8] = HPLM + 10% dialyzed FBS, 1.71 µM
[9] = HPLM + 10% dialyzed FBS, 5.12 µM
[10] = HPLM + 10% dialyzed FBS, 15.4 µM
[11] = HPLM + 10% dialyzed FBS, 46.1 µM
[12] = RPMI 5 mM glucose + 10% FBS, 0.000781 µM
[13] = RPMI 5 mM glucose + 10% FBS, 0.00234 µM
[14] = RPMI 5 mM glucose + 10% FBS, 0.00702 µM
[15] = RPMI 5 mM glucose + 10% FBS, 0.0211 µM
[16] = RPMI 5 mM glucose + 10% FBS, 0.0632 µM
[17] = RPMI 5 mM glucose + 10% FBS, 0.19 µM
[18] = RPMI 5 mM glucose + 10% FBS, 0.569 µM
[19] = RPMI 5 mM glucose + 10% FBS, 1.71 µM
[20] = RPMI 5 mM glucose + 10% FBS, 5.12 µM
[21] = RPMI 5 mM glucose + 10% FBS, 15.4 µM
[22] = RPMI 5 mM glucose + 10% FBS, 46.1 µM
[23] = RPMI 5 mM glucose + 10% dialyzed FBS, 0.000781 µM
[24] = RPMI 5 mM glucose + 10% dialyzed FBS, 0.00234 µM
[25] = RPMI 5 mM glucose + 10% dialyzed FBS, 0.00702 µM
[26] = RPMI 5 mM glucose + 10% dialyzed FBS, 0.0211 µM
[27] = RPMI 5 mM glucose + 10% dialyzed FBS, 0.0632 µM
[28] = RPMI 5 mM glucose + 10% dialyzed FBS, 0.19 µM
[29] = RPMI 5 mM glucose + 10% dialyzed FBS, 0.569 µM
[30] = RPMI 5 mM glucose + 10% dialyzed FBS, 1.71 µM
[31] = RPMI 5 mM glucose + 10% dialyzed FBS, 5.12 µM
[32] = RPMI 5 mM glucose + 10% dialyzed FBS, 15.4 µM
[33] = RPMI 5 mM glucose + 10% dialyzed FBS, 46.1 µM

| SMILES | cell viability [1] [%] | cell viability [2] [%] | cell viability [3] [%] | cell viability [4] [%] | cell viability [5] [%] | cell viability [6] [%] | cell viability [7] [%] | cell viability [8] [%] | cell viability [9] [%] | cell viability [10] [%] | cell viability [11] [%] | cell viability [12] [%] | cell viability [13] [%] | cell viability [14] [%] | cell viability [15] [%] | cell viability [16] [%] | cell viability [17] [%] | cell viability [18] [%] | cell viability [19] [%] | cell viability [20] [%] | cell viability [21] [%] | cell viability [22] [%] | cell viability [23] [%] | cell viability [24] [%] | cell viability [25] [%] | cell viability [26] [%] | cell viability [27] [%] | cell viability [28] [%] | cell viability [29] [%] | cell viability [30] [%] | cell viability [31] [%] | cell viability [32] [%] | cell viability [33] [%] |
| --- | --- | --- | --- | --- | --- | --- | --- | --- | --- | --- | --- | --- | --- | --- | --- | --- | --- | --- | --- | --- | --- | --- | --- | --- | --- | --- | --- | --- | --- | --- | --- | --- | --- |
| COc1cc2c(Nc3ccc(Br)cc3F)ncnc2cc1OCC1CCN(C)CC1 | 45.3 | 81.6 | 94.3 | 69.3 | 71.4 | 76.8 | 72.2 | 65 | 79.4 | 31 | 66.2 | 67.3 | 124 | 111 | 112 | 118 | 110 | 84.2 | 88.7 | 98.1 | 58.9 | 74.1 | 40 | 83.4 | 91 | 89.2 | 63.7 | 80.7 | 81.7 | 63.2 | 79.1 | 42.5 | 63.5 |
| COc1cc([C@H]2Oc3cc([C@H]4Oc5cc(O)cc(O)c5C(=O)[C@@H]4O)ccc3O[C@@H]2CO)ccc1O | 63.6 | 105 | 109 | 112 | 117 | 121 | 121 | 105 | 110 | 98.6 | 92.7 | 101 | 118 | 117 | 116 | 121 | 118 | 104 | 120 | 123 | 120 | 108 | 93.5 | 114 | 124 | 124 | 133 | 126 | 124 | 132 | 118 | 120 | 112 |
| COC(=O)C1C2CC3c4[nH]c5cc(OC)ccc5c4CCN3CC2CC(OC(=O)c2cc(OC)c(OC)c(OC)c2)C1OC (stereo not drawn) | 116 | 120 | 119 | 125 | 130 | 119 | 141 | 115 | 116 | 117 | 105 | 97.2 | 120 | 102 | 107 | 113 | 102 | 104 | 112 | 94.8 | 85.2 | 91.4 | 116 | 110 | 113 | 105 | 104 | 134 | 124 | 135 | 128 | 82.1 | 86.6 |
| CCCCCCCCCC(=O)N[C@@H](Cc1c[nH]c2ccccc12)C(=O)N[C@H](CC(N)=O)C(=O)N[C@@H](CC(=O)O)C(=O)N[C@@H]1C(=O)NCC(=O)N[C@@H](CCCN)C(=O)N[C@@H](CC(=O)O)C(=O)N[C@H](C)C(=O)N[C@@H](CC(=O)O)C(=O)NCC(=O)N[C@H](CO)C(=O)N[C@@H]([C@@H](C)CC(=O)O)C(=O)N[C@@H](CC(=O)c2ccccc2N)C(=O)O[C@@H]1C | 81.6 | 101 | 98.3 | 108 | 93.4 | 108 | 121 | 114 | 116 | 107 | 101 | 103 | 103 | 123 | 114 | 105 | 120 | 121 | 102 | 116 | 119 | 120 | 102 | 105 | 94.8 | 103 | 123 | 104 | 117 | 103 | 109 | 105 | 102 |
| C[S+](=O)([O-])c1cccc(CNc2nc(Nc3ccc4c(c3)CCC(=O)N4)ncc2C(F)(F)F)c1 | – | – | – | – | – | – | – | – | – | – | – | 112 | 126 | 119 | 127 | 105 | 125 | 109 | 71.5 | 63.1 | 30.6 | 8.79 | 111 | 114 | 98.4 | 110 | 101 | 94.9 | 87.3 | 74.4 | 49.9 | 20.5 | 4.38 |
| O=C(Nc1ncc(-c2cc(C(F)F)nn2-c2c(Cl)cccc2Cl)s1)C1CC1 | 101 | 113 | 102 | 128 | 121 | 124 | 118 | 47 | 20.5 | 21.9 | 8.41 | 112 | 106 | 123 | 131 | 127 | 137 | 124 | 31.5 | 14.8 | 14.8 | 4.67 | 115 | 103 | 99.9 | 137 | 127 | 123 | 130 | 37.2 | 17.8 | 22 | 5.55 |
| CC(C)c1cc(C(=O)N2Cc3ccc(CN4CCN(C)CC4)cc3C2)c(O)cc1O | – | – | – | – | – | – | – | – | – | – | – | 104 | 105 | 107 | 17.8 | 112 | 107 | 31.1 | 23.5 | 21.5 | 23.1 | 18.3 | 125 | 120 | 120 | 20.5 | 106 | 99.9 | 47.2 | 32.4 | 29.8 | 28.8 | 25.9 |
| CC(C)c1ccc(Cn2ccc3c4c(N)nc(NC5CC5)nc4ccc32)cc1 | 99.5 | 100 | 113 | 100 | 113 | 107 | 67.6 | 53.2 | 37.5 | 31.9 | 6.32 | 107 | 114 | 120 | 80.5 | 106 | 120 | 102 | 110 | 35.5 | 19.5 | 8.49 | 97.7 | 113 | 123 | 80.5 | 125 | 124 | 134 | 119 | 46.7 | 33.3 | 9.93 |
| Nc1nc(N)c2nc(-c3cccc(O)c3)c(-c3cccc(O)c3)nc2n1 | 110 | 120 | 120 | 135 | 111 | 125 | 104 | 106 | 94.5 | 35 | 8.06 | 124 | 125 | 125 | 129 | 103 | 118 | 120 | 110 | 108 | 73.8 | 13.8 | 119 | 99.4 | 129 | 106 | 105 | 114 | 98.8 | 96.5 | 97.2 | 61 | 18.2 |
| CNC[C@H](O)c1cccc(O)c1 | 66.9 | 68.9 | 98.8 | 23.9 | 86.8 | 93.1 | 98.1 | 103 | 103 | 101 | 108 | 93 | 55.3 | 100 | 15.4 | 88.7 | 96.7 | 91.7 | 78.1 | 98.2 | 104 | 116 | 89 | 73 | 89.5 | 19.9 | 111 | 98.8 | 101 | 110 | 110 | 98.4 | 111 |
| C[S+](=O)([O-])c1ccc(-c2cnc(N)c(C(=O)Nc3ccccc3)n2)cc1 | 99.6 | 98.3 | 115 | 107 | 123 | 106 | 127 | 110 | 95.2 | 23.7 | 20.2 | 99.1 | 87.6 | 90.7 | 105 | 107 | 133 | 129 | 119 | 103 | 33.1 | 25.3 | 98.5 | 103 | 98.5 | 99.6 | 96.2 | 111 | 99.8 | 105 | 82.7 | 16 | 15.4 |
| CN(C)c1nc(Cc2ccc(NC(=O)c3ccc4ccccc4c3)cc2)nc(Cl)c1CC(=O)O | 120 | 114 | 112 | 116 | 109 | 111 | 138 | 113 | 105 | 110 | 105 | 110 | 116 | 127 | 108 | 107 | 110 | 110 | 93.8 | 107 | 102 | 105 | 119 | 115 | 136 | 122 | 126 | 108 | 112 | 107 | 111 | 137 | 108 |
| Cc1ccc([S+](=O)([O-])Nc2nc3ccccc3nc2Nc2ccc3nsnc3c2)cc1 | 81.7 | 90.3 | 99.9 | 88.2 | 92.6 | 93.5 | 87.8 | 90.5 | 78.6 | 73.5 | 59.1 | 102 | 100 | 102 | 112 | 107 | 101 | 97.8 | 105 | 78.7 | 81.3 | 54.9 | 95 | 87.9 | 84.8 | 96 | 88.2 | 84.4 | 89.7 | 96.4 | 83.2 | 61.8 | 65.8 |
| O=C(O)/C=C/c1ccc(O)c(O)c1 | 90.4 | 102 | 93.6 | 122 | 106 | 93.6 | 98.5 | 105 | 112 | 78 | 20.2 | 108 | 96.8 | 90.3 | 114 | 110 | 90.6 | 109 | 106 | 98.5 | 39.1 | 5.15 | 99.2 | 117 | 111 | 112 | 103 | 114 | 104 | 91.7 | 105 | 50 | 5.58 |
| COC[C@H](c1ccc(C(F)(F)F)cc1)N1CCN(C2(C)CCN(C(=O)c3c(C)ncnc3C)CC2)C[C@H]1C.O=C(O)/C=C\C(=O)O | 80.5 | 98.2 | 105 | 93.5 | 90 | 104 | 90.2 | 92 | 99.8 | 95.4 | 61.8 | 66 | 94.5 | 82.9 | 97.5 | 85.6 | 87.6 | 84.5 | 99.6 | 92.4 | 83.8 | 59.6 | 85.2 | 93.2 | 97.1 | 108 | 88.6 | 97.3 | 103 | 104 | 84 | 98 | 65.8 |
